Experiments:
mice = details: literature; cited from earlier work
C57BL/6N mice = assay: Evaluation of NIK-333 and ATRA for toxicity in mice (Example 2); type: in vivo, mouse; details: oral once per day for 2 weeks, versus soybean oil control
Method: 7-Week old C57BL/6N mice (Charles River Japan) were given with MK-333 or ATRA once per day for 2 weeks by forcible continuous oral administration. After completion of the test, S-TG concentrations and testis weights of individual mice were measured. To the control group, soybean oil was administered.

rats = details: literature; cited from earlier work
recurrence of hepatoma = details: clinical, during the administration; cited from earlier work
[1] = system: SD male rats on high fat diet (HFD32); assay: Action of NIK-333 for decreasing hepatic lipid amount in high fat diet rats (Example 1); type: in vivo, rat; details: oral once a day for 8 weeks, serum
From the text: For the experiment, 6-week old SD male rats (Charles River Japan) were used. HFD32 (Clea Japan) was used for the high fat diet group, and CE-2 (Clea Japan) was used for the normal control group. The feeding was restricted to 25±3 g for both of the groups. Administration of NIK-333 was started at the same time as the start of the loading of the high fat diet, and the drug was given once a day for 8 weeks by forcible continuous oral administration. After completion of the test, each liver was extracted, and triglyceride (H-TG) amount and cholesterol (H-T-chol) amount in the liver were measured. Hematoxylin-eosin (H.E.) and Oil Red O (O.R.) staining samples were prepared from the extracted liver, and histopathological examination was performed. Degree of fatty degeneration of the liver was graded into five categories on the basis of the examination of the H.E. staining sample, and scores were assigned. Further, from the O.R. staining sample, O.R. positive area in the liver sample area was calculated by using an image analyzer. Furthermore, triglyceride (S-TG), total cholesterol (S-T-chol), alanine aminotransferase (S-ALT), and aspartate aminotransferase (S-AST) levels in serum were measured.

## CC1=C(/C=C/C(C)=C/C=C/C(C)=C/C(=O)O)C(C)(C)CCC1 [ATRA, all-trans-retinoic acid]
mice
  testis weight: decreased testis weight
C57BL/6N mice
  S-TG concentration (FIG. 5): increases the S-TG concentration
  testis weight (FIG. 6): markedly decreases testis weight
rats
  testis weight: decreased testis weight

## CC(C)=CCC/C(C)=C/CC/C(C)=C/C=C/C(C)=C/C(=O)O [NIK-333, (2E,4E,6E,10E)-3,7,11,15-tetramethyl-2,4,6,10,14-hexadecapentaenoic acid]
Recurrence of hepatoma
  liver function failure or other adverse effects caused by retinoids: not substantially observed
C57BL/6N mice
  S-TG concentration (FIG. 5): does not affect the concentration
  testis weight (FIG. 6): does not affect the weight
[1]
  lipid concentration in blood (S-TG, S-T-chol; FIG. 3): without affecting lipid concentration in blood

From patent US8673976B2, “Medicament for prophylactic and/or therapeutic treatment of hepatic steatosis or non-alcoholic steatohepatitis” (Kowa Company, Ltd., priority 2007, dated 2014)
